pIC50: −log10 of the molar value. Activity calls are given as the source filed them. The rule behind the calls is not given here.

We go through 21 compounds from ChEMBL document CHEMBL3352132, “Synthesis, screening and docking of small heterocycles as glycogen phosphorylase inhibitors” (Eur J Med Chem, 2014).

The target of the first assay is T1, Glycogen phosphorylase, muscle form (Oryctolagus cuniculus) (UniProt P00489).
T1 sequence (whole entry): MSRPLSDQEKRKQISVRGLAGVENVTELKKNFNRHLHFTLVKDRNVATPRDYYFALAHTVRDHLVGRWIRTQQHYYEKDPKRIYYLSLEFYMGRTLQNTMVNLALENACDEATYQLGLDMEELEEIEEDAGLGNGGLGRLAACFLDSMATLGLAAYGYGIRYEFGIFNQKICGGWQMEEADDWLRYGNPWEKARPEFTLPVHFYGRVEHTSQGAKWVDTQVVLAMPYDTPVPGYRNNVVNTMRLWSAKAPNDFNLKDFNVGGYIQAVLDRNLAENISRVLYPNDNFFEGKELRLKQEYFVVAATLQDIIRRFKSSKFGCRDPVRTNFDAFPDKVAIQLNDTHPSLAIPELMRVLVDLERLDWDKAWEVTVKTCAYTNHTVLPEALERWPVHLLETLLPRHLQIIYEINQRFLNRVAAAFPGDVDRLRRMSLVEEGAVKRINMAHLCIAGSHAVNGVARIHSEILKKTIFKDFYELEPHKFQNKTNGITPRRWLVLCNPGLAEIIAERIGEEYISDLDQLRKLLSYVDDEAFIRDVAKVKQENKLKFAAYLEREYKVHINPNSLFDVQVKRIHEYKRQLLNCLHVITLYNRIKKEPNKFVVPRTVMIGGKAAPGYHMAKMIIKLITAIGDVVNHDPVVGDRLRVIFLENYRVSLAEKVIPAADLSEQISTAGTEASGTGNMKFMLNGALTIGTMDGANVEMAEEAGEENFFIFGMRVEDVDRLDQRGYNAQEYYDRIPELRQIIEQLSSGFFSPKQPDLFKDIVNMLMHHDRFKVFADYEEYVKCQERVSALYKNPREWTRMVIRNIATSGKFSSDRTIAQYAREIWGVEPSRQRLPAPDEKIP
Briefly: (§1) Inhibition of rabbit muscle glycogen phosphorylase a assessed as inhibition of release of phosphate from glucose-1-phosphate after 30 mins by spectrophotometry.
As to `NCCCCC(N)C(=O)N1CCOCC1` (stereo unspecified), the outcome was inactive.

As for `CC(C)CC(NC(=O)OCc1ccccc1)C(=O)N1CCOCC1` (stereo unspecified), the result was inactive.

In the case of `O=C(NC(Cc1ccccc1)C(=O)N1CCOCC1)OCc1ccccc1` (stereo unspecified), the outcome was inactive.

In the next assay the target is T2, Glycogen phosphorylase, muscle form (Oryctolagus cuniculus, UniProt P00489).
T2 sequence (P00489 whole entry): T1 sequence (whole entry)
The assay is described as §1.
One may read the pIC50 as −log10 of the IC50, conventionally taken in molar units. For the compound `CC1(C)CN=C(c2ccccc2)NC1`, the pIC50 was 2.92.

As to `c1ccc(C2=NC3CCCCC3N2)cc1` (stereo unspecified), the pIC50 was 2.11.

As to `c1ccc(C2=NCCCCO2)cc1`, the pIC50 is 2.85.

For the compound `CC(C)(C)OC(=O)N1CCCN=C1c1ccccc1`, the pIC50 was 2.96.

Turning to `COC(=O)[C@@H]1CSC(c2ccccc2)=N1`, the pIC50 is 4.60.

For `c1ccc(C2=NCCO2)cc1`, the pIC50 is 1.62.

As for `CC(C)CC(N)C(=O)N1CCOCC1` (stereo unspecified), the pIC50 was 2.19.

On to `c1ccc(C2=NCCCCN2)cc1`, for which the negative-log IC50 (pIC50) was 2.52.

Take `CC(C)N1CCCN=C1c1ccccc1`: the pIC50 is 2.14.

In another assay the target is T1, Glycogen phosphorylase, muscle form (Oryctolagus cuniculus). Description: Inhibition of rabbit muscle glycogen phosphorylase a assessed as inhibition of release of phosphate from glucose-1-phosphate at 22 mM after 30 mins by spectrophotometry.
As usually defined, the inhibition is the relative decrease from the control value, in per cent. In the case of `c1ccc(C2=NCCS2)cc1`, the inhibition was 39%.

For a further assay the target is unchanged. Briefly: Inhibition of rabbit muscle glycogen phosphorylase a assessed as inhibition of release of phosphate from glucose-1-phosphate at 111 mM after 30 mins by spectrophotometry.
As for `CC1CN=C(c2ccccc2)O1` (stereo unspecified), the inhibition was determined as 78%.

Consider `c1ccc(C2=NCCCO2)cc1`, for which the inhibition was 39%.

`CC(C)(C)OC(=O)NC(CCC(=O)O)C(=O)N1CCOCC1` (stereo unspecified): the inhibition amounted to 12%.

For another assay the target is unchanged. Briefly: Inhibition of rabbit muscle glycogen phosphorylase a assessed as inhibition of release of phosphate from glucose-1-phosphate at 56 mM after 30 mins by spectrophotometry.
As to `O=[N+]([O-])c1ccc(C2=NCCO2)cc1`, the inhibition is 94%.

A further assay shares this target. Briefly: Inhibition of rabbit muscle glycogen phosphorylase a assessed as inhibition of release of phosphate from glucose-1-phosphate at 222 mM after 30 mins by spectrophotometry.
In the case of `NC(CCC(=O)O)C(=O)N1CCOCC1` (stereo unspecified), the inhibition turned out to be 25%.

Take `NC(Cc1ccccc1)C(=O)N1CCOCC1` (stereo unspecified): the inhibition came out at 20%.

Regarding `O=C(NCCCCC(NC(=O)OCc1ccccc1)C(=O)N1CCOCC1)OCc1ccccc1` (stereo unspecified), the inhibition was determined as 5%.

As for `c1ccc(C2=NCCCN2)cc1`, the inhibition worked out at 99%.
